The subject of one data set is MCF-7 cells. Nature of the data set: Cell cycle distribution and necrosis by flow cytometry, MCF-7. The class given is cell-based, human. Particulars: MCF-7, 5 μM, 3 and 4 d. As to the method: FIGS. 3A-D. MUC1/CQC peptide induces S phase arrest and necrosis. ZR-75-1 (FIGS. 3A-B) and MCF-7 (FIGS. 3C-D) cells were treated with 5 μM MUC1/CQC or MUC1/AQA for 3 and 4 d. Cells were fixed and analyzed for cell cycle distribution by flow cytometry (FIGS. 3A and 3C). The percentage of cells in G1, S and G2/M phases is included in the panels. Cells were also stained with propidium iodide and analyzed by flow cytometry for necrosis (FIGS. 3B and 3D). The percentage of necrotic cells is included in the panels.
Cells were harvested, washed with PBS, fixed with 80% ethanol, and incubated in PBS containing 40 μg/ml RNAse and 40 μg/ml propidium iodide for 30 min at 37° C. Cell cycle distribution was determined by flow cytometry. Sub-G1 DNA content was assessed by staining ethanol-fixed and citrate buffer-permeabilized cells with propidium iodide and monitoring by flow cytometry as described (Yin et al., 2007). For assessment of necrosis, cells were incubated with 1 μg/ml propidium iodide/PBS for 5 min at room temperature and then monitored by flow cytometry as described (Yin et al., 2007).
To determine whether the MUC1/CQC peptide affects growth, ZR-75-1 cells were treated with 5 μM MUC1/CQC for 72 h and monitored for cell cycle distribution. […] These findings indicate that the MUC1/CQC peptide inhibits growth and induces necrosis of human breast cancer cells.

Data set [1] relates to MCF-10A non-transformed mammary epithelial cell line. Nature of the data set: Cell cycle distribution and viable cell number, MCF-10A. The data set is classed as cell-based, human. Particulars: 5 μM. As to the method:
(§1) FIGS. 4A-E. Selectivity of MUC1/CQC for MUC1 expressing breast cancer cells. (FIG. 4A) ZR-75-1 cells were stably infected with an empty lentivirus (vector) or one expressing a MUC1 siRNA. Lysates for the infected cells were immunoblotted with the indicated antibodies. (FIG. 4B) ZR-75-1/vector cells were left untreated (diamonds), and ZR-75-1/vector (squares) and ZR-75-1/MUC1siRNA (triangles) cells were treated with 5 μM MUC1/CQC peptide for the indicated times. Viable cell number was determined by trypan blue exclusion. (FIG. 4C) 293 cells were left untreated (diamonds), and treated with 5 μM MUC1/CQC (squares) or MUC1/AQA (triangles) for the indicated times. Viable cell number was determined by trypan blue exclusion. (FIG. 4D) MCF-10A cells were left untreated (left panel), and treated with 5 μM MUC1/CQC (middle panel) or MUC1/AQA (right panel). At 3 d, cells were analyzed for cell cycle distribution. […] Viable cell number was determined by trypan blue exclusion.
(§2) Human breast cancer ZR-75-1, ZR-75-1/vector, ZR-75-1/MUC1siRNA (Ren et al., 2004) cell lines were grown in RPMI1640 medium supplemented with 10% heat-inactivated fetal bovine serum (HI-FBS), 100 U/ml penicillin, and 100 μg/ml streptomycin (Invitrogen) in a humidified incubator at 37° C. and 5% CO2. […] Viability was determined by trypan blue exclusion. […]

The nature of data set [2]: Body weight of nude mice under peptide administration. The data set is classed as in vivo.
A further data set deals with T1, MUC1-C in ZR-75-1 cells (Homo sapiens, UniProt P15941).
T1 construct: translated as a single polypeptide and cleaved into N- and C-terminal subunits in the endoplasmic reticulum; endogenous in cells; host or cells: ZR-75-1 and MCF-7 human breast cancer cells
T1 sequence (P15941 1098-1255 limits assumed): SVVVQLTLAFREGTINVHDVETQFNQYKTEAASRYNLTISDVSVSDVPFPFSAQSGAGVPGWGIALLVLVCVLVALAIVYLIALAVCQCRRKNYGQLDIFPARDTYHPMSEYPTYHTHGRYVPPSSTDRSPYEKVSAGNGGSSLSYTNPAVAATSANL
Nature of the data set: Immunoblot of whole cell and nuclear lysates, ZR-75-1. The data set is classed as cell-based. To be noted: 5 μM peptide for 3 d; for decreases in nuclear MUC1-C levels: nuclear lysates; for cellular MUC1-C levels: whole cell lysates. As to the method:
FIGS. 2A-C. MUC1/CQC peptide blocks nuclear localization of MUC1-C. (FIG. 2A) ZR-75-1 cells were incubated with 5 μM FITC-labeled MUC1/CQC peptide for the indicated times and then analyzed by flow cytometry. The mean fluorescence index (MFI) is included in each of the panels. (FIGS. 2B-C) ZR-75-1 (FIG. 2B) and MCF-7 (FIG. 2C) cells were incubated in the presence of 5 μM MUC1/CQC or MUC1/AQA peptide for 3 d. Whole cell lysates (WCL) (left panels) and nuclear lysates (right panels) were immunoblotted with the indicated antibodies.
Whole cell and nuclear lysates were prepared as described (Leng et al., 2007). Soluble proteins were subjected to immunoprecipitation with anti-Flag (Sigma, St. Louis, Mo.). Immunoprecitates and soluble proteins were analyzed by immunoblotting with anti-His (Cell Signaling Technology, Danvers, Mass.), anti-GFP (Millipore, Danvers, Mass.), anti-Flag, anti-MUC1-C (Abl; NeoMarkers, Fremont, Calif.), anti-lamin B (EMD, La Jolla, Calif.) or anti-β-actin (Sigma). Reactivity was detected with horseradish peroxidase-conjugated second antibodies and chemiluminescence.
Human ZR-75-1 and MCF-7 breast cancer cells overexpress endogenous MUC1, and thus represent potential models for evaluating effects of the MUC1/CQC peptide (Ramasamy et al., 2007). To assess uptake, the ZR-75-1 cells were incubated with 5 μM FITC-MUC1/CQC peptide (FIG. 2A). […] Oligomerization of MUC1-C is necessary for its nuclear import (Leng et al., 2007). Treatment of ZR-75-1 cells with the MUC1/CQC or the MUC1/AQA peptide had no effect on cellular MUC1-C levels (FIG. 2B). […] These findings indicate that the MUC1/CQC peptide blocks MUC1-C oligomerization and thereby targeting of MUC1-C to the nucleus.
(Immunoblotting shows a protein as a band on a membrane.)

The next data set has as its system ZR-75-1/vector cells. Nature of the data set: Viable cell number by trypan blue exclusion, ZR-75-1/vector. The data set is classed as cell-based, human. Particulars: 5 μM. As to the method: as §1, §2

Entries after “also recorded” stand apart in the source; their conditions may differ. Where a SMILES comes first, the peptide text is derived from it. Where no end group is shown, it is not given here. [ ]: non-standard residue; d: D form.

`CC[C@H](C)[C@H](NC(=O)[C@H](CC(=O)O)NC(=O)[C@H](CC(C)C)NC(=O)[C@H](CCC(N)=O)NC(=O)CNC(=O)[C@H](Cc1ccc(O)cc1)NC(=O)[C@H](CC(N)=O)NC(=O)[C@H](CCCCN)NC(=O)[C@H](CCCNC(=N)N)NC(=O)[C@H](CCCNC(=N)N)NC(=O)[C@H](CS)NC(=O)[C@H](CCC(N)=O)NC(=O)[C@H](CS)NC(=O)[C@@H](CCCNC(=N)N)NC(=O)[C@@H](CCCNC(=N)N)NC(=O)[C@@H](CCCNC(=N)N)NC(=O)[C@@H](CCCNC(=N)N)NC(=O)[C@@H](CCCNC(=N)N)NC(=O)[C@@H](CCCNC(=N)N)NC(=O)[C@@H](CCCNC(=N)N)NC(=O)[C@@H](CCCNC(=N)N)NC(=O)[C@H](N)CCCNC(=N)N)C(=O)N[C@@H](Cc1ccccc1)C(=O)N1CCC[C@H]1C(=O)O` [MUC1/CQC] (H-[dR][dR][dR][dR][dR][dR][dR][dR][dR]CQCRRKNYGQLDIFP-OH; N-terminus and C-terminus assumed): in the data set with MCF-7 cells, the cell cycle distribution result was “arrest of growth in S phase” and the necrosis result is listed as “induction of necrosis”. The effect on growth result in data set [1] is recorded as “no effect; also recorded: little effect”. Further, the “effect on cell cycle distribution” value in data set [1] (3 d) was “no effect”. The “effect on weight of the individual mice” value in data set [2] (50 mg/kg IP once each day over 11 d, female nude mice) is recorded as “no apparent effect”. Further, in data set [2] (next 28 d after 50 mg/kg IP daily for 11 d, data not shown), the “effect on bodyweight after stopping administration” value is “no subsequent effect on bodyweight”. For the same compound, at MUC1-C in ZR-75-1 cells, the “decreases in nuclear MUC1-C levels” value is on record as “decreases in nuclear MUC1-C levels” and the “cellular MUC1-C levels” value was “no effect”. Moreover, the “effect on growth (viable cell number)” value in the data set on ZR-75-1/vector cells was “growth arrest and death”.

Take “MUC1/AQA: control peptide in which the CQC motif was altered to AQA, with poly-dArg transduction domain; SEQ ID NO: 60 ([dR][dR][dR][dR][dR][dR][dR][dR][dR]AQARRKNYGQLDIFP) [reference compound]”: in the data set with MUC1-C in ZR-75-1 cells, the “decreases in nuclear MUC1-C levels” value is reported as “not” and the “cellular MUC1-C levels” value is “no effect”.

Values taken from patent US9546201B2, “MUC-1 cytoplasmic domain peptides as inhibitors of cancer” (DANA-FARBER CANCER INSTITUTE, INC., priority 2008, dated 2017).
